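Method: 48-hour compound exposure of cells in 96-well plates, five concentrations, linear interpolation of endpoints. GI50: concentration for 50% inhibition of growth.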 The source made the active and inactive calls. Cut-off read from the data, not from the text of the source: active = GI50 up to about 1.1 µM and inactive = higher.
Columns and labels:
Assay in all cases: NCI tumour cell line growth inhibition, 48 h
[1] = system: ACHN
[2] = system: CCRF-CEM
[3] = system: COLO 205
[4] = system: EKVX
[5] = system: HCT-116
[6] = system: HL-60
[7] = system: HOP-92
[8] = system: HT-29
[9] = system: M14
[10] = system: MOLT-4
[11] = system: Malme-3M
[12] = system: NCI-H226
[13] = system: NCI-H23
[14] = system: OVCAR-8
[15] = system: RPMI-8226
[16] = system: SF-539
[17] = system: SN12C
[18] = system: SNB-19
[19] = system: TK-10
[20] = system: U-251

Compound | GI50 [1] | GI50 [2] | GI50 [3] | GI50 [4] | GI50 [5] | GI50 [6] | GI50 [7] | GI50 [8] | GI50 [9] | GI50 [10] | GI50 [11] | GI50 [12] | GI50 [13] | GI50 [14] | GI50 [15] | GI50 [16] | GI50 [17] | GI50 [18] | GI50 [19] | GI50 [20]
CCn1cc(C(=O)O)c(=O)c2cc(F)c(N3CCN(CN4C(=O)/C(=N\c5ncc(Cc6cc(OC)c(OC)c(OC)c6)c(N)n5)c5cc(Cl)ccc54)CC3)cc21 | > 100 µM (inactive) | 91 µM (inactive) | > 100 µM (inactive) | > 100 µM (inactive) | 74.3 µM (inactive) | 20 µM (inactive) | > 100 µM (inactive) | > 100 µM (inactive) | > 100 µM (inactive) | 0.38 µM (active) | > 100 µM (inactive) | > 100 µM (inactive) | > 100 µM (inactive) | > 100 µM (inactive) | 0.0399 µM (active) | > 100 µM (inactive) | > 100 µM (inactive) | > 100 µM (inactive) | 83 µM (inactive) | 61.4 µM (inactive)
CC(C)S(=O)(=O)ON1C(=O)c2ccc(N(C)C)cc2C1=O | 15.6 µM (inactive) | 0.918 µM (active) | 2.86 µM (inactive) | 22.3 µM (inactive) | 14.8 µM (inactive) | 3.41 µM (inactive) | 7.35 µM (inactive) | 22.8 µM (inactive) | 17.2 µM (inactive) | 2.12 µM (inactive) | 2.93 µM (inactive) | 25.2 µM (inactive) | 27.7 µM (inactive) | 2.65 µM (inactive) | 2.58 µM (inactive) | 19 µM (inactive) | 16.9 µM (inactive) | 40.4 µM (inactive) | 20.5 µM (inactive) | 15.8 µM (inactive)
CSc1cc(N)ccc1/N=N/c1ccc(S(N)(=O)=O)cc1 | 27.2 µM (inactive) | 27.3 µM (inactive) | 25.8 µM (inactive) | 31 µM (inactive) | 30.5 µM (inactive) | 25.1 µM (inactive) | 21.8 µM (inactive) | 30.3 µM (inactive) | 38.1 µM (inactive) | 31.3 µM (inactive) | 24.7 µM (inactive) | 13.2 µM (inactive) | 33.4 µM (inactive) | 22.3 µM (inactive) | 16.4 µM (inactive) | 31.5 µM (inactive) | 27.5 µM (inactive) | 55.3 µM (inactive) | 29.4 µM (inactive) | 26.9 µM (inactive)
O=C1c2ccccc2-c2c1c1ccccc1c(=O)n2-c1ccccc1 | 5.09 µM (inactive) | > 100 µM (inactive) | > 46.5 µM (inactive) | 23.3 µM (inactive) | 4.17 µM (inactive) | > 33 µM (inactive) | 26.9 µM (inactive) | > 31.5 µM (inactive) | 47.2 µM (inactive) | > 100 µM (inactive) | > 62.5 µM (inactive) | 12.2 µM (inactive) | 11.6 µM (inactive) | 5.79 µM (inactive) | > 100 µM (inactive) | 4.91 µM (inactive) | 16.4 µM (inactive) | 5.7 µM (inactive) | 11.7 µM (inactive) | 9.18 µM (inactive)
CN(C1=NS(=O)(=O)N=C(N(C)c2ccccc2)O1)c1ccccc1 | 17.3 µM (inactive) | 13.4 µM (inactive) | 21.8 µM (inactive) | 22.2 µM (inactive) | 13.7 µM (inactive) | 13.6 µM (inactive) | 23.6 µM (inactive) | 22.9 µM (inactive) | 18.9 µM (inactive) | 27.4 µM (inactive) | 24.2 µM (inactive) | 14.9 µM (inactive) | 11.5 µM (inactive) | 17.4 µM (inactive) | 16.9 µM (inactive) | 21.6 µM (inactive) | 18.7 µM (inactive) | 18.7 µM (inactive) | 35.1 µM (inactive) | 16 µM (inactive)
O=C(c1ccccc1)[C@H]1Nc2cnccc2C2c3ccccc3CC21 (stereo not given in full) | 13.8 µM (inactive) | 3.27 µM (inactive) | 19.8 µM (inactive) | 19.9 µM (inactive) | 3.81 µM (inactive) | 4.63 µM (inactive) | 13.1 µM (inactive) | 19.4 µM (inactive) | 6.82 µM (inactive) | 2.99 µM (inactive) | 12.9 µM (inactive) | 4.26 µM (inactive) | 8.51 µM (inactive) | 8.24 µM (inactive) | 7 µM (inactive) | 15.7 µM (inactive) | 8.59 µM (inactive) | 26.7 µM (inactive) | 35.1 µM (inactive) | 11.3 µM (inactive)
C/C=C1\CC2C(=O)CCC2C2c3ccccc3OC12 (stereo not given) | > 100 µM (inactive) | > 100 µM (inactive) | > 100 µM (inactive) | > 100 µM (inactive) | > 100 µM (inactive) | 87.7 µM (inactive) | > 100 µM (inactive) | > 100 µM (inactive) | > 100 µM (inactive) | > 100 µM (inactive) | > 100 µM (inactive) | > 100 µM (inactive) | > 100 µM (inactive) | > 100 µM (inactive) | > 100 µM (inactive) | > 100 µM (inactive) | < 0.01 µM (active) | > 100 µM (inactive) | > 100 µM (inactive) | > 100 µM (inactive)
CN(C(=O)c1ccc(Cl)s1)C(=S)N(C)C(=O)c1ccc(Cl)s1 | > 10 µM (inactive) | > 10 µM (inactive) | > 10 µM (inactive) | > 10 µM (inactive) | > 10 µM (inactive) | > 10 µM (inactive) | > 10 µM (inactive) | > 10 µM (inactive) | > 10 µM (inactive) | > 10 µM (inactive) | > 10 µM (inactive) | > 10 µM (inactive) | > 10 µM (inactive) | > 10 µM (inactive) | > 10 µM (inactive) | > 10 µM (inactive) | > 10 µM (inactive) | > 10 µM (inactive) | > 10 µM (inactive) | > 10 µM (inactive)
CCCCCC(=O)OC[n+]1ccc2c(C)c3[nH]c4ccc(OC)cc4c3c(C)c2c1 | 0.106 µM (active) | 0.0805 µM (active) | 0.251 µM (active) | 0.925 µM (active) | 0.0482 µM (active) | 0.241 µM (active) | 1.2 µM (inactive) | 0.0897 µM (active) | 0.622 µM (active) | 0.0419 µM (active) | 1.37 µM (inactive) | 0.276 µM (active) | 0.361 µM (active) | 0.112 µM (active) | 0.0619 µM (active) | 0.238 µM (active) | 0.117 µM (active) | 0.189 µM (active) | 2.55 µM (inactive) | 0.321 µM (active)
CC(=O)NC(CCCCN(Cc1ccccc1)C(=O)N(CCCl)N=O)C(=O)NCc1ccccc1 (stereo not given) | 14.3 µM (inactive) | 17.8 µM (inactive) | 42.2 µM (inactive) | 61.9 µM (inactive) | > 49.5 µM (inactive) | 12.4 µM (inactive) | 33 µM (inactive) | 42 µM (inactive) | 41.7 µM (inactive) | 14.3 µM (inactive) | 37.5 µM (inactive) | 43.1 µM (inactive) | 27.7 µM (inactive) | 17.4 µM (inactive) | 41.7 µM (inactive) | 3.38 µM (inactive) | 34.8 µM (inactive) | 16.7 µM (inactive) | 44.8 µM (inactive) | 11.6 µM (inactive)
O=C1Nc2ccccc2/C1=C1/Nc2ccccc2/C1=N\OCCNCC(O)C(O)C(O)C(O)CO (stereo not given) | > 50 µM (inactive) | 10.5 µM (inactive) | 12.1 µM (inactive) | 30.3 µM (inactive) | 13.4 µM (inactive) | 5.5 µM (inactive) | 10.1 µM (inactive) | 16.9 µM (inactive) | 20.9 µM (inactive) | 12.9 µM (inactive) | 11.2 µM (inactive) | 13.8 µM (inactive) | 10.4 µM (inactive) | 18.5 µM (inactive) | 19.1 µM (inactive) | 14.1 µM (inactive) | 15.2 µM (inactive) | 13.6 µM (inactive) | 35.8 µM (inactive) | 12.9 µM (inactive)
O=c1[nH]n(Cc2ccccn2)c2ccc([N+](=O)[O-])cc12 | > 100 µM (inactive) | > 100 µM (inactive) | > 100 µM (inactive) | > 100 µM (inactive) | > 100 µM (inactive) | > 100 µM (inactive) | > 100 µM (inactive) | > 100 µM (inactive) | > 100 µM (inactive) | > 100 µM (inactive) | > 100 µM (inactive) | > 100 µM (inactive) | > 100 µM (inactive) | > 100 µM (inactive) | > 100 µM (inactive) | > 100 µM (inactive) | > 100 µM (inactive) | > 100 µM (inactive) | > 100 µM (inactive) | > 100 µM (inactive)
O=C1C=CC(=O)c2c(O)c(N(CCCl)CCCl)c(Cl)c(O)c21 | 4.13 µM (inactive) | 1.25 µM (inactive) | 3.94 µM (inactive) | > 8.91 µM (inactive) | 4.26 µM (inactive) | > 6.05 µM (inactive) | 2.98 µM (inactive) | 5.38 µM (inactive) | 4.37 µM (inactive) | > 5.31 µM (inactive) | 4.37 µM (inactive) | > 9.66 µM (inactive) | 5.07 µM (inactive) | 4.51 µM (inactive) | > 8.39 µM (inactive) | 5.24 µM (inactive) | > 6.68 µM (inactive) | > 10 µM (inactive) | 3.35 µM (inactive) | 5.73 µM (inactive)
CC(C)OC(=O)c1cc(NC(=S)OC(C)C)ccc1Cl | 22.8 µM (inactive) | 39.3 µM (inactive) | 14.6 µM (inactive) | 7.8 µM (inactive) | 20.8 µM (inactive) | 16.3 µM (inactive) | 18.4 µM (inactive) | 16.5 µM (inactive) | 35.6 µM (inactive) | 11.9 µM (inactive) | 33.6 µM (inactive) | 18.3 µM (inactive) | 20.5 µM (inactive) | 26.4 µM (inactive) | 24.6 µM (inactive) | 14.8 µM (inactive) | 13.4 µM (inactive) | 27 µM (inactive) | 22.8 µM (inactive) | 22.9 µM (inactive)
